According to the Deep4Chem optical property database:
Several values for one entry are separate records, joined by “and”; a condition that tells them apart may be missing. Equal values may be shown once.

Experiment: photoluminescence quantum yield (fraction); solvent given as SMILES
[1] = in O=P(c1ccccc1)(c1ccccc1)c1ccccc1Oc1ccccc1P(=O)(c1ccccc1)c1ccccc1

With N#Cc1nc(N(Cc2ccc(Br)cc2)Cc2ccc(Br)cc2)c(C#N)nc1N(Cc1ccc(Br)cc1)Cc1ccc(Br)cc1 the photoluminescence quantum yield (in ClC(Cl)Cl) was 0.71.

In the case of O=C1c2ccccc2-c2nc3c(F)c(F)c(F)c(F)c3n21, the photoluminescence quantum yield (in ClCCl) is reported as 0.22.

Clc1ccc(-c2nc(-c3ccccc3)sc2N(c2ccccc2)c2ccccc2)cc1 gave a photoluminescence quantum yield (in ClC(Cl)Cl) of 0.33.

For CCCCCCCCn1c2cc(/C=C/c3ccc(N(c4ccccc4)c4ccccc4)cc3)ccc2c2cc3c(cc21)c1ccc(/C=C/c2ccc(N(c4ccccc4)c4ccccc4)cc2)cc1n3CCCCCCCC, the photoluminescence quantum yield (in Cc1ccccc1) was 0.62.

Work on c1ccc2c(c1)Oc1ccccc1N2c1ccc(-c2nnc(-c3ccc(N4c5ccccc5Oc5ccccc54)cc3)o2)cc1 yielded a photoluminescence quantum yield (in Cc1ccccc1) of 0.431 and a photoluminescence quantum yield [1] of 0.87.

For COc1ccc(/C=C/C(=O)c2ccccc2O)cc1OC, the photoluminescence quantum yield (in C1CCOC1) was 0, the photoluminescence quantum yield (in C1COCCO1) was 0.072 and the photoluminescence quantum yield (in CC#N) was 0.28. For the same molecule, the photoluminescence quantum yield (in CCCO) was 0.37, the photoluminescence quantum yield (in CCO) was 0.15 and the photoluminescence quantum yield (in CN(C)C=O) was 0.36. For the same molecule, the photoluminescence quantum yield (in CO) was 0.24, the photoluminescence quantum yield (in CS(C)=O) was 0.47 and the photoluminescence quantum yield (in ClC(Cl)Cl) was 0.053. It also gave a photoluminescence quantum yield (in ClCCl) of 0.037.

Work on COc1ccc(-c2nc3ccccc3nc2/C=C/N2CCCC2)s1 yielded a photoluminescence quantum yield (in C1CCCCC1) of 0.072, a photoluminescence quantum yield (in C1CCOC1) of 0.155 and a photoluminescence quantum yield (in CC#N) of 0.21. For the same molecule, the photoluminescence quantum yield (in CC(C)=O) was 0.209, the photoluminescence quantum yield (in CCO) was 0.031 and the photoluminescence quantum yield (in CO) was 0.009. It also gave a photoluminescence quantum yield (in CS(C)=O) of 0.184, a photoluminescence quantum yield (in Cc1ccccc1) of 0.095 and a photoluminescence quantum yield (in ClCCl) of 0.19.

Work on C(S/C=C/c1ccc(/C=C/SC=C(c2ccccc2)c2ccccc2)cc1)=C(c1ccccc1)c1ccccc1 yielded a photoluminescence quantum yield (in ClCCl) of 0.058.

With CC1(C)C(/C=C/C2=C(Cl)C(=C/C=C3/N(Cc4ccc(F)cc4)c4ccccc4C3(C)C)/CCC2)=[N+](Cc2ccc(F)cc2)c2ccccc21 the photoluminescence quantum yield (in CCO) was 0.148.

In the case of N#Cc1c(-n2c3ccccc3c3ccccc32)c(-n2c3ccccc3c3ccccc32)c(C#N)c(-n2c3ccccc3c3ccccc32)c1-n1c2ccccc2c2ccccc21, the photoluminescence quantum yield (in Cc1ccccc1) is reported as 0.716 and 0.72.

Work on CCOC(=O)c1sc(-c2ccc(-c3cc(C4CC4)c(C(=O)OCC)s3)s2)cc1C1CC1 yielded a photoluminescence quantum yield (in ClCCl) of 0.21.

Molecule C[Si](C)(C)c1ccc2ccc3cccc4ccc1c2c34 has a photoluminescence quantum yield (in CCCCCC) of 0.23, a photoluminescence quantum yield (in CO) of 0.22 and a photoluminescence quantum yield (in ClCCl) of 0.36.

Cc1cc(-c2ccc(C(C)(C)C)cc2)c2nsnc2c1-c1ccc(N(c2ccccc2)c2ccccc2)cc1 showed a photoluminescence quantum yield (in ClCCl) of 0.18.

Work on COc1cc(OC)c2cc(C#N)c(=N)oc2c1 yielded a photoluminescence quantum yield (in ClCCl) of 0.047.

Work on COc1ccc(C2=[N+]3C(=Nc4c(-c5ccc6ccccc6c5)cc(-c5ccc(OC)cc5)n4[B-]3(F)F)C(c3ccc4ccccc4c3)=C2)cc1 yielded a photoluminescence quantum yield (in ClCCl) of 0.34.

Work on CCN(C)c1ccc(C2=C3C(C)=CC(/C=C/c4ccc(OCC(=O)OC)cc4)=[N+]3[B-](F)(F)n3c(C)cc(C)c32)cc1 yielded a photoluminescence quantum yield (in CO) of 0.78.

Molecule C=CCNc1ccc2c(ccc3oc4cc(=[N+](C)C)ccc-4nc32)c1 has a photoluminescence quantum yield (in CC#N) of 0.06, a photoluminescence quantum yield (in CCO) of 0.05 and a photoluminescence quantum yield (in ClCCl) of 0.4. The photoluminescence quantum yield (in O) was 0.009.

COC(=O)C1=C(C(=O)OC)C2(c3ccccc3-c3ccccc32)[C@@H](c2ccc([N+](=O)[O-])cc2)C=C2c3cc(OC)c(OC)cc3CCN21 showed a photoluminescence quantum yield (in ClCCl) of 0.00065.

Work on N#Cc1ccc(-n2c(-c3ccc(-c4ccc(-n5c6ccccc6c6ccccc65)cc4)s3)nc3c4ccccc4c4ccccc4c32)c2ccccc12 yielded a photoluminescence quantum yield (in ClCCl) of 0.78.

In the case of CN(C)c1cc(-c2ccc(C#Cc3ccccc3)cc2)cc2ccccc12, the photoluminescence quantum yield (in ClCCl) is reported as 0.7.

Cc1oc2c(Cl)cc3c(C)cc(=O)oc3c2c1C gave a photoluminescence quantum yield (in C1CCCCC1) of 0.0005, a photoluminescence quantum yield (in C1COCCO1) of 0.003 and a photoluminescence quantum yield (in CC#N) of 0.007. For the same molecule, the photoluminescence quantum yield (in CCO) was 0.02 and the photoluminescence quantum yield (in OCC(F)(F)F) was 0.04.

In the case of COc1cc(-c2cnc(-c3cnc4ccccc4c3)o2)cc(OC)c1OC, the photoluminescence quantum yield (in ClCCl) is reported as 0.76.

With CCn1c2ccccc2c2cc(/C=C/c3cc(/C=C/c4ccc5c(c4)c4ccccc4n5CC)[n+](CCCS(=O)(=O)[O-])c(/C=C/c4ccc5c(c4)c4ccccc4n5CC)c3)ccc21 the photoluminescence quantum yield (in C1CCOC1) was 0.12, the photoluminescence quantum yield (in CC#N) was 0.05 and the photoluminescence quantum yield (in CC(C)=O) was 0.05. The photoluminescence quantum yield (in Cc1ccccc1) was 0.09.

Work on Clc1nc(Nc2ccccc2)nc(Nc2ccc3cc4ccccc4cc3c2)n1 yielded a photoluminescence quantum yield (in C1COCCO1) of 0.42, a photoluminescence quantum yield (in CC#N) of 0.18 and a photoluminescence quantum yield (in CCCCOCCCC) of 0.35. For the same molecule, the photoluminescence quantum yield (in CCOC(C)=O) was 0.23.

With Oc1ccccc1-c1nc2c3cccnc3c3ncccc3c2n1-c1ccccc1 the photoluminescence quantum yield (in Cc1ccccc1) was 0.001.

Molecule O=C1/C(=C2\Sc3ccc(S(=O)(=O)O)cc3C2=O)Sc2ccc(S(=O)(=O)O)cc21 has a photoluminescence quantum yield (in CN(C)C=O) of 0.25, a photoluminescence quantum yield (in CO) of 0.008 and a photoluminescence quantum yield (in CS(C)=O) of 0.008. The photoluminescence quantum yield (in O) was 0.005.

Molecule c1cc2c([nH]c3c4[nH]c5sccc5c4c4nsnc4c23)s1 has a photoluminescence quantum yield (in C1CCOC1) of 0.38, a photoluminescence quantum yield (in CCOC(C)=O) of 0.34 and a photoluminescence quantum yield (in CN(C)C=O) of 0.33. It also gave a photoluminescence quantum yield (in Cc1ccccc1) of 0.42 and a photoluminescence quantum yield (in ClCCl) of 0.27.

Molecule CC1(C)c2ccccc2N(c2ccc(S(=O)(=O)c3ccc(N4c5ccccc5C(C)(C)c5ccccc54)cc3)cc2)c2ccccc21 has a photoluminescence quantum yield (in C1COCCO1) of 0.8, a photoluminescence quantum yield (in CC(C)=O) of 0.59 and a photoluminescence quantum yield (in Cc1ccccc1) of 0.8. The photoluminescence quantum yield (in ClC(Cl)Cl) was 0.8 and the photoluminescence quantum yield (in c1cc(-n2c3ccccc3c3ccccc32)cc(-n2c3ccccc3c3ccccc32)c1) was 0.8.

Cc1ccc(/C=C(\c2ccccc2)c2nc3ccccc3o2)cc1 showed a photoluminescence quantum yield (in C1CCCCC1) of 0.008 and a photoluminescence quantum yield (in CO) of 0.004.

With C(=C\c1ccncn1)/c1ccc(N2CCCCC2)cc1 the photoluminescence quantum yield (in ClCCl) was 0.13.

Cc1ccc(C2=C3C=CC4=[N+]3[P-](=O)(=O)n3c2ccc3-c2ccc([nH]2)/C(c2ccc(C)cc2)=c2/cc/c(o2)=C(\c2ccc(C)cc2)c2ccc4[nH]2)cc1 showed a photoluminescence quantum yield (in ClC(Cl)Cl) of 0.18.

Molecule C(=C\c1cc(/C=C/c2ccc(-n3c4ccccc4c4ccccc43)cc2)cc(/C=C/c2ccc(-n3c4ccccc4c4ccccc43)cc2)c1)/c1ccc(-n2c3ccccc3c3ccccc32)cc1 has a photoluminescence quantum yield (in C1CCOC1) of 0.8, a photoluminescence quantum yield (in CC#N) of 0.83 and a photoluminescence quantum yield (in Cc1ccccc1) of 0.59. The photoluminescence quantum yield (in ClCCl) was 0.75.

COc1ccc(-c2cc(/C=C/c3ccc(N(c4ccccc4)c4ccccc4)cc3)c(C#N)c(N3CCCCC3)c2)cc1 gave a photoluminescence quantum yield (in CS(C)=O) of 0.57.

CC(C)(C)c1ccc(C2=CC3=C(c4ccccc4)c4cc(-c5ccc(C(C)(C)C)cc5)c(-c5ccc(C(C)(C)C)cc5)n4[B-](F)(F)[N+]3=C2c2ccc(C(C)(C)C)cc2)cc1 showed a photoluminescence quantum yield (in C1CCCCC1) of 0.33, a photoluminescence quantum yield (in C1CCOC1) of 0.28 and a photoluminescence quantum yield (in CC#N) of 0.29. The photoluminescence quantum yield (in Cc1ccccc1) was 0.43 and the photoluminescence quantum yield (in ClCCl) was 0.3.

In the case of CCCC1=Cc2nc1ccc1[nH]c(cc1CCC)c1nc(c(OC(=O)CCCC(=O)OC(C)(C)C)cc3[nH]c2cc3CCC)C(CCC)=C1, the photoluminescence quantum yield (in Cc1ccccc1) is reported as 0.21.

N#C/C(=C\c1ccc(C(F)(F)F)cc1)c1nc(-c2ccc(Cl)cc2)cs1 showed a photoluminescence quantum yield (in CC#N) of 0.057.

Molecule CCCCCCc1ccc2c3c(ccc2c1)O[B-](F)(F)[N+](c1cc([N+]2=Cc4c(ccc5cc(CCCCCC)ccc45)O[B-]2(F)F)cc([N+]2=Cc4c(ccc5cc(CCCCCC)ccc45)O[B-]2(F)F)c1)=C3 has a photoluminescence quantum yield (in C1CCOC1) of 0.26, a photoluminescence quantum yield (in CC#N) of 0.18 and a photoluminescence quantum yield (in Cc1ccccc1) of 0.48. It also gave a photoluminescence quantum yield (in ClCCl) of 0.44.

Molecule O=C1NC(=O)C(c2c[nH]c3ccccc23)=C1c1c[nH]c2ccccc12 has a photoluminescence quantum yield (in C1CCOC1) of 0.24, a photoluminescence quantum yield (in CC#N) of 0.1 and a photoluminescence quantum yield (in CC(C)OC(C)C) of 0.28. For the same molecule, the photoluminescence quantum yield (in CCCCOCCCC) was 0.22, the photoluminescence quantum yield (in CCO) was 0.003 and the photoluminescence quantum yield (in CCOC(C)=O) was 0.21. For the same molecule, the photoluminescence quantum yield (in CN(C)C=O) was 0.13, the photoluminescence quantum yield (in Cc1ccccc1) was 0.28 and the photoluminescence quantum yield (in ClCCl) was 0.21.

Work on CC1(C)c2ccccc2-n2c(-c3ccc(-n4c5ccccc5c5ccccc54)cc3)nc3cccc1c32 yielded a photoluminescence quantum yield (in Cc1ccccc1) of 0.99 and a photoluminescence quantum yield [1] of 0.85.

Molecule O=C1c2ccccc2C2=Cc3ccccc3B(O)N12 has a photoluminescence quantum yield (in CC#N) of 0.97, a photoluminescence quantum yield (in CO) of 0.74 and a photoluminescence quantum yield (in CS(C)=O) of 0.12. The photoluminescence quantum yield (in ClC(Cl)Cl) was 1.

CN(C)c1ccc(C#Cc2cc(C#Cc3ccc(C(F)(F)F)cc3)c3ccc4c(C#Cc5ccc(C(F)(F)F)cc5)cc(C#Cc5ccc(N(C)C)cc5)c5ccc2c3c54)cc1 gave a photoluminescence quantum yield (in ClCCl) of 0.42.

Work on N#Cc1cc(-n2c3ccccc3c3ccccc32)c(-n2c3ccccc3c3ccccc32)cc1C#N yielded a photoluminescence quantum yield (in C1CCOC1) of 0.125, a photoluminescence quantum yield (in Cc1ccccc1) of 0.465 and a photoluminescence quantum yield (in c1ccc2c(c1)c1ccccc1n2-c1ccc(-c2ccc(-n3c4ccccc4c4ccccc43)cc2)cc1) of 0.6.

Molecule CC(C)c1cccc(C(C)C)c1-n1c(=O)c2cc3nc(-c4ccccc4)c4cc5c(=O)n(-c6c(C(C)C)cccc6C(C)C)c(=O)c6cc7nc(-c8ccccc8)c8cc(c1=O)c2c1c3c4c(c65)c7c81 has a photoluminescence quantum yield (in ClC(Cl)Cl) of 0.25.

Molecule CCCCC(CC)COc1cc(OCC(CC)CCCC)c2c#cc3ccc4sc5ccc(c#cc6cc(c#cc7ccc8sc9ccc(c#cc1c2)cc9c8c7)c(C(CCCC)OCCC)cc6C(CCCC)OCCC)cc5c4c3 (centres undefined) has a photoluminescence quantum yield (in ClCCl) of 0.22.

With COc1ccc(-n2nc(C#N)c(N3CCCC3)n2)cc1OC the photoluminescence quantum yield (in CC#N) was 0.996.

Cc1ccc(C)cc1 gave a photoluminescence quantum yield (in C1CCCCC1) of 0.39.

With CN(C)c1ccc(-c2ccc(-c3cc(-c4ccccc4)c(-c4ccccc4)c(-c4ccccc4)c3-c3ccccc3)cc2)cc1 the photoluminescence quantum yield (in ClC(Cl)Cl) was 0.14.

In the case of O=c1cc(-c2ccccc2)oc(-c2ccc(-c3nc4ccccn4c3NC3CCCCC3)cc2)c1, the photoluminescence quantum yield (in ClCCl) is reported as 0.028.

For CCCCN1C(=O)c2cc(Br)c3c4c(Br)cc5c6c(cc(Br)c(c7c(Br)cc(c2c37)C1=O)c64)C(=O)N(CCCC)C5=O, the photoluminescence quantum yield (in ClC(Cl)Cl) was 0.31.

Work on CC1(C)OB(c2cc3ccc4cccc5ccc(c2)c3c45)OC1(C)C yielded a photoluminescence quantum yield (in Cc1ccccc1) of 0.72.
